We go through two compounds from EP0347027B1, “Phenylpyridone derivatives,processes for their preparation and pharmaceutical compositions containing them” (SMITH KLINE & FRENCH LABORATORIES LIMITED, priority 1988, dated 1989).

For assay [1], the system named is hindquarter blood flow. The assay is described as follows: Vasodilatation in vivo (perfused hindquarters at constant pressure). The note with it: Rattus norvegicus, iv; dose producing a 50% increase in hindquarter blood flow; bolus i.v.; anaesthetised male Wistar rats; read-out: EDHQ₅₀. As to the method: Male Wistar rats (300 g) were anaesthetised with a sodium 5-ethyl-5-(1-methylpropyl)-2-thiobarbiturate/sodium pentobarbitone mixture i.p. (62.5 and 22.5 mg/kg respectively). The trachea was cannulated and the rats breathed spontaneously air enriched with O₂ (5 ml/min). Blood pressure was recorded from a carotid artery and a jugular vein was cannulated for the administration of compounds. The temperature of the animal was maintained at 37°C by the use of an electric blanket. […] The perfusion circuit was primed with 5% bovine serum albumin dissolved in 0.9% sodium chloride solution, pH adjusted to 7.4. Initially the pump rate was set between 10 and 15 ml/min to match the hind quarter perfusion pressure to that of the systemic circulation. Once set, the pressure remained unaltered for the rest of the experiment. A change in the speed of the pump (equivalent to hindquarter blood flow) was used to assess the changes in hindquarter vascular resistance.
All compounds were administered as a bolus i.v. and from the dose response curves the dose required to produce a 50% increase in hindquarter blood flow (EDHQ₅₀) was determined in µmoles/kg.

The test system of assay [2] is bronchoconstrictor response. The assay is described as follows: Anti-allergic activity (ovalbumen challenge in sensitised animals). The format is in vivo, Duncan Hartley guinea-pigs. The following applies: Cavia porcellus, iv, 0.5 h; dose of 11 µmol/kg i.v.; ovalbumen 1mg.kg⁻¹ i.v. challenge 30 minutes following drug administration; sensitised guinea-pigs; read-out: inhibition of the control bronchoconstrictor response. On the procedure: Male Duncan Hartley guinea-pigs (250-300 g) were sensitised to ovalbumen by i.p. injection of 2 ml of 50mg.ml⁻¹ i.p. and 0.2 ml s.c. Three weeks later they were anaesthetised with 60mg.kg⁻¹ sodium pentabarbitone. The trachea was cannulated and the animal respired at a rate of 40 breaths per minute and at an initial tracheal inflation pressure of 16 mmHg. Tracheal inflation pressure was measured by a transducer connected to a side arm of the respiration circuit. The carotid artery was cannulated for the measurement of blood pressure and the signal was used to trigger an instantaneous rate meter. A jugular vein was cannulated for the administration of drug and allergen. After surgery the animals were allowed to stabilise and the drug was administered i.v. as a bolus. Following this, ovalbumen 1mg.kg⁻¹ was injected i.v. as the antigen challenge either 2, 15 or 30 minutes following drug treatment and the peak bronchoconstrictor response recorded. For the control group ovalbumen only was given. One ovalbumen challenge per guinea-pig was used and n = 6 for each time point. The percentage increase in tracheal inflation pressure was calculated.

Regarding `CCCOc1ccccc1-c1ccc(C#N)c(=O)[nH]1` [Example 1, 3-Cyano-6-(2-propoxyphenyl)-2(1H)-pyridinone], the ED50 in assay [1] was 11.5 µmol/kg.
On to `CCCOc1ccccc1-c1ccc(C(N)=O)c(=O)[nH]1` [Example 2, 6-(2-Propoxyphenyl)-1,2-dihydro-2-oxopyridine-3-carboxamide], for which the ED50 in assay [1] was 14 µmol/kg. The inhibition (in general, the drop in the measured response relative to a control, in per cent) at 11 µmol/kg in assay [2] came out at 44%.
